{"source": "patent US20190262363A1", "about": "“ANTAGONIST OF MINERALOCORTICOID RECEPTOR FOR THE TREATMENT OF OSTEOARTHRITIS” (INSERM (INSTITUT NATIONAL DE LA SANTÉ ET DE LA RECHERCHE …, priority 2016, published 2019)", "system": "knee joints of SHHF^cp/cp rats (metabolic syndrome associated osteoarthritis model) and lean SHHF^+/+ rats", "assay": "Chronic eplerenone treatment in lean SHHF+/+ and MetS SHHFcp/cp rats; knee joint histology and OARSI scoring", "type": "in vivo, rat", "from_the_text": "In this study were used lean SHHF^+/+ (spontaneously hypertensive heart failure) rats as controls and obese SHHF^cp/cp rats, which have been characterized as a good model for metabolic syndrome (MetS). […] The absence of eple means that the considered rats are part of a control placebo group.\nAnimals of both lean SHHF^+/+ and MetS SHHF^cp/cp genotypes were divided randomly into two groups. Group I (n=4 for SHHF^+/+ and n=4 for SHHF^cp/cp) was given placebo and group II (n=4 for SHHF^+/+ and n=9 for SHHF^cp/cp) was given 100 mg.kg-1.day-1 of the selective MRA eplerenone (pure active molecule provided by Pfizer) in drinking water from 1.5 months to 12.5 months of age. The knee joints of 1.5- and 12.5- month-old specimens of each group (untreated SHHF^+/+ and SHHF^cp/cp and their treated counterparts) were fixed in 4% paraformaldehyde, decalcified in EDTA-phosphate buffered solution and then embedded in paraffin. […] thick adjacent sections were stained with Toluidine Blue, Hematoxylin and Eosin or submitted to collagen II immunohistochemistry in order to investigate cartilage destruction, osteophyte formation and lesions of the synovial tissue, respectively. The corresponding scores following OARSI guidelines were done blindly by independent researchers.", "note": "“Also recorded” adds a separate entry of the source.", "data": [{"smiles": "COC(=O)[C@@H]1CC2=CC(=O)CC[C@]2(C)[C@@]23O[C@@H]2C[C@@]2(C)[C@@H](CC[C@@]24CCC(=O)O4)[C@H]13", "note": "[eplerenone, Pregn-4-ene-7,21-dicarboxylic acid, 9,11-epoxy-17-hydroxy-3-oxo-,y-lactone, methyl ester, (7α,11α,17β)]", "values": [{"measurement": "Cartilage histology (toluidine blue): fibrillations and loss of proteoglycans", "setting": "12.5SHHF^cp/cp Eple knee joints vs untreated 12.5SHHF^cp/cp, FIG. 1D vs. 1C", "result": "markedly reduced fibrillations and loss of proteoglycans"}, {"measurement": "Osteophytes, collagen II immunostaining", "setting": "12.5SHHF^cp/cp Eple knee joints vs untreated 12.5SHHF^cp/cp, FIG. 2D vs. 2C", "result": "alleviated osteophytes"}, {"measurement": "Synovial tissue histology (Hematoxylin & Eosin): inflammation and fibrosis", "setting": "12.5SHHF^cp/cp Eple knee joints vs untreated 12.5SHHF^cp/cp, FIG. 3D vs. 3C", "result": "attenuated inflammation and fibrosis of the synovial tissue"}, {"measurement": "OARSI scoring of the joint cartilage degradation (cartilage alterations)", "setting": "12.5SHHF^cp/cp Eple rats vs placebo 12.5SHHF^cp/cp, 100 mg.kg-1.day-1 in drinking water from 1.5 to 12.5 months of age, FIG. 1E", "result": "prevents the degradation of joint cartilage; also recorded: drastically decreases the cartilage alterations"}, {"measurement": "OARSI scoring of osteophyte (osteophyte formation)", "setting": "12.5SHHF^cp/cp Eple rats vs placebo 12.5SHHF^cp/cp, 100 mg.kg-1.day-1 in drinking water from 1.5 to 12.5 months of age, FIG. 2E", "result": "reduces osteophyte formation; also recorded: significantly hampers osteophyte formation"}, {"measurement": "OARSI scoring of the joint inflammation (synovial inflammatory and fibrotic events)", "setting": "12.5SHHF^cp/cp Eple rats vs placebo 12.5SHHF^cp/cp, 100 mg.kg-1.day-1 in drinking water from 1.5 to 12.5 months of age, FIG. 3E", "result": "reduces the joint inflammation; also recorded: markedly reduces the level of inflammatory and fibrotic events"}, {"measurement": "Knee joint phenotype", "setting": "MetS 12.5SHHF^cp/cp Eple rats treated from 1.5 months onward, compared to placebo 12.5SHHF^cp/cp", "result": "phenotypes very similar to those of their ^12.5SHHF^+/+ counterparts"}, {"measurement": "Knee joint phenotype", "setting": "lean 12.5SHHF^+/+ eple rats, 100 mg.kg-1.day-1 in drinking water from 1.5 to 12.5 months of age", "result": "displayed normal phenotype"}]}]}
